The structures appear in SMILES notation.

The subject of the assay is M17—3TAU(P301L) cells. Description: Neuroblastoma tauopathy model: inhibition of TAU-induced cytotoxicity (LDH). Format: cell-based. The following applies: Homo sapiens, 168 h; inhibition of TAU-induced toxicity (LDH), 7 days differentiation with retinoic acid. A digest of the protocol:
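BE-M17 neuroblastoma cells stably expressing human TAU-P301L, differentiated with RA (2.5 μM in added medium) for 7 days at 37 °C with compounds at a range of concentrations. Cytotoxicity as supernatant LDH over total LDH (Cytotox 96); EC50 from dose-dependent inhibition curve.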

As to `Fc1cccc(-c2nsc(N3CCN(CCc4cccc(C(F)(F)F)c4)CC3)n2)c1` [Example 141, 1-[3-(3-Fluoro-phenyl)-[1,2,4]thiadiazol-5-yl]-4-[2-(3-trifluoromethyl-phenyl)-ethyl]-piperazine], the EC50 was found to be 198 nM.

`FC(F)(F)c1ccc(CCN2CCN(c3nc(-c4cncc(Cl)c4)ns3)CC2)cc1` [Example 152, 1-[3-(5-Chloro-pyridin-3-yl)-[1,2,4]thiadiazol-5-yl]-4-[2-(4-trifluoromethyl-phenyl)-ethyl]-piperazine] displayed an EC50 of 215 nM.

Turning to `Cc1ccc(-c2nsc(N3CCN(Cc4ccccc4C)CC3)n2)cc1` [Example 6, 1-(2-Methyl-benzyl)-4-(3-p-tolyl-[1,2,4]thiadiazol-5-yl)-piperazine], the EC50 came out at 278 nM.

The molecule `Cc1cc(-c2nsc(N3CCN(CCc4ccc(F)cc4)CC3)n2)cnn1` [Example 174, 5-(4-(4-fluorophenethyl)piperazin-1-yl)-3-(6-methylpyridazin-4-yl)-1,2,4-thiadiazole] had an EC50 of 12.6 nM.

The molecule `Clc1ccc(-c2nsc(N3CCN(CCC4CCCCC4)CC3)n2)cc1` [Example 161, 3-(4-chlorophenyl)-5-(4-(2-cyclohexylethyl)piperazin-1-yl)-1,2,4-thiadiazole] yielded an EC50 of 39.6 nM.

For `COc1ccccc1CCCN1CCN(c2nc(-c3ccc(Cl)cc3)ns2)CC1` [Example 39, 1-[3-(4-Chloro-phenyl)-[1,2,4]thiadiazol-5-yl]-4-[3-(2-methoxy-phenyl)-propyl]-piperazine], a half-maximal response (EC50) required 43.5 nM.

In turn, `COc1ccc(C(C)CN2CCN(c3nc(-c4ccc(Cl)cc4)ns3)CC2)cc1` (centres unmarked) [Example 72, 1-[3-(4-Chloro-phenyl)-[1,2,4]thiadiazol-5-yl]-4-[2-(4-methoxy-phenyl)-propyl]-piperazine] registered a concentration for a half-maximal effect (EC50) of 94.3 nM.

For the molecule `Fc1ccc(-c2nsc(N3CCN(CCC4CCOCC4)CC3)n2)cc1F` [Example 164, 3-(3,4-difluorophenyl)-5-(4-(2-(tetrahydro-2H-pyran-4-yl)ethyl)piperazin-1-yl)-1,2,4-thiadiazole], the EC50 amounted to 3.4 nM.

`Cc1ccccc1CN1CCN(c2nc(-c3cccc(Cl)c3)ns2)CC1` [Example 92, 1-[3-(3-Chloro-phenyl)-[1,2,4]thiadiazol-5-yl]-4-(2-methyl-benzyl)-piperazine] showed an EC50 of 43.3 nM.

Regarding `COc1ccc(C(O)CN2CCN(c3nc(-c4ccc(Cl)cc4)ns3)CC2)cc1` (centres unmarked) [Example 54, 2-{4-[3-(4-Chloro-phenyl)-[1,2,4]thiadiazol-5-yl]-piperazin-1-yl}-1-(4-methoxy-phenyl)-ethanol], it took 16.1 nM to reach a half-maximal effect (EC50).

`Cc1ccccc1CN1CCN(c2nc(-c3ccc(Cl)cc3)ns2)CC1` [Example 12, 1-[3-(4-Chloro-phenyl)-[1,2,4]thiadiazol-5-yl]-4-(2-methyl-benzyl)-piperazine] gave an EC50 of 268 nM.

`Clc1ccc(CCN2CCN(c3nc(-c4ccnc(Cl)c4)ns3)CC2)cc1` [Example 169, 5-(4-(4-chlorophenethyl)piperazin-1-yl)-3-(2-chloropyridin-4-yl)-1,2,4-thiadiazole] returned an EC50 of 10.4 nM.

`CC(C)Oc1ccc(CCN2CCN(c3nc(-c4ccc(Cl)cc4)ns3)CC2)cc1` [Example 71, 1-[3-(4-Chloro-phenyl)-[1,2,4]thiadiazol-5-yl]-4-[2-(4-isopropoxy-phenyl)-ethyl]-piperazine] returned a concentration giving a half-maximal response (EC50) of 429 nM.

As to `COc1ccc(CCN2CCN(c3nc(-c4ccc(F)c(F)c4)ns3)CC2)cc1` [Example 102, 1-[3-(3,4-Difluoro-phenyl)-[1,2,4]thiadiazol-5-yl]-4-[2-(4-methoxy-phenyl)-ethyl]-piperazine], the EC50 was 0.9 nM.

In turn, `COc1ccc(CCN2CCN(c3nc(-c4ccc(F)cc4)ns3)CC2)cc1` [Example 47, 1-[3-(4-Fluoro-phenyl)-[1,2,4]thiadiazol-5-yl]-4-[2-(4-methoxy-phenyl)-ethyl]-piperazine] yielded an EC50 of 0.4 nM.

In turn, `Cc1ccccc1CN1CCN(c2nc(-c3cc(Cl)ccn3)ns2)CC1` [Example 128, 1-[3-(4-Chloro-pyridin-2-yl)-[1,2,4]thiadiazol-5-yl]-4-(2-methyl-benzyl)-piperazine] showed an EC50 of 110 nM.

`Cc1ccccc1CN1CCN(c2nc(-c3cccc(C#N)c3)ns2)CC1` [Example 119, 3-{5-[4-(2-Methyl-benzyl)-piperazin-1-yl]-[1,2,4]thiadiazol-3-yl}-benzonitrile] displayed an EC50 of 25 nM.

Regarding `COc1cccc(C(=O)CN2CCN(c3nc(-c4ccc(Cl)cc4)ns3)CC2)c1` [Example 60, 2-{4-[3-(4-Chloro-phenyl)-[1,2,4]thiadiazol-5-yl]-piperazin-1-yl}-1-(3-methoxy-phenyl)-ethanone], a half-maximal response (EC50) required 41.2 nM.

On to `FC(F)(F)c1cccc(CCN2CCN(c3nc(-c4cccc(Cl)c4)ns3)CC2)c1` [Example 142, 1-[3-(3-Chloro-phenyl)-[1,2,4]thiadiazol-5-yl]-4-[2-(3-trifluoromethyl-phenyl)-ethyl]-piperazine], for which the EC50 amounted to 3.7 nM.

Molecule `Fc1ccc(CCN2CCN(c3nc(-c4ccc(Cl)cn4)ns3)CC2)cc1F` [Example 139, 1-[3-(5-Chloro-pyridin-2-yl)-[1,2,4]thiadiazol-5-yl]-4-[2-(3,4-difluoro-phenyl)-ethyl]-piperazine] showed an EC50 of 47.2 nM.

In turn, `Clc1ccc(CCN2CCN(c3nc(-c4cc(Cl)ccn4)ns3)CC2)cc1` [Example 123, 1-[2-(4-Chloro-phenyl)-ethyl]-4-[3-(4-chloro-pyridin-2-yl)-[1,2,4]thiadiazol-5-yl]-piperazine] gave an EC50 of 94.6 nM.

In turn, `COc1ccc(CCN2CCN(c3nc(-c4ccncc4)ns3)CC2)cc1` [Example 43, 1-[2-(4-Methoxy-phenyl)-ethyl]-4-(3-pyridin-4-yl-[1,2,4]thiadiazol-5-yl)-piperazine] showed an EC50 of 3.3 nM.

In the case of `COc1ccc(CCN2CCN(c3nc(-c4cc(Cl)ccn4)ns3)CC2)cc1` [Example 125, 1-[3-(4-Chloro-pyridin-2-yl)-[1,2,4]thiadiazol-5-yl]-4-[2-(4-methoxy-phenyl)-ethyl]-piperazine], the EC50 is 3 nM.

In the case of `COc1cccc(CCN2CCN(c3nc(-c4ccc(F)cc4OC)ns3)CC2)c1` [Example 66, 1-[3-(4-Fluoro-2-methoxy-phenyl)-[1,2,4]thiadiazol-5-yl]-4-[2-(3-methoxy-phenyl)-ethyl]-piperazine], the EC50 was 1.5 nM.

For the molecule `C=C(CN1CCN(c2nc(-c3ccc(Cl)cc3)ns2)CC1)c1ccc(OC)cc1` [Example 59, 1-[3-(4-Chloro-phenyl)-[1,2,4]thiadiazol-5-yl]-4-[2-(4-methoxy-phenyl)-allyl]-piperazine], the EC50 came to 75 nM.

`COc1cccc(CCN2CCN(c3nc(-c4ccc(C(F)(F)F)nc4)ns3)CC2)c1` [Example 30, 1-[2-(3-Methoxy-phenyl)-ethyl]-4-[3-(6-trifluoromethyl-pyridin-3-yl)-[1,2,4]thiadiazol-5-yl]-piperazine] gave an EC50 of 147 nM.

As for `COc1ccc(CCN2CCN(c3nc(-c4ccccc4Cl)ns3)CC2)cc1` [Example 58, 1-[3-(2-Chloro-phenyl)-[1,2,4]thiadiazol-5-yl]-4-[2-(4-methoxy-phenyl)-ethyl]-piperazine], the EC50 stood at 2.2 nM.

For `Cc1cc(-c2nsc(N3CCN(CCc4ccccc4)CC3)n2)ccn1` [Example 171, 3-(2-methylpyridin-4-yl)-5-(4-phenethylpiperazin-1-yl)-1,2,4-thiadiazole], the EC50 came to 2.4 nM.

Take `Clc1cccc(-c2nsc(N3CCN(CCC4CCOCC4)CC3)n2)c1` [Example 165, 3-(3-chlorophenyl)-5-(4-(2-(tetrahydro-2H-pyran-4-yl)ethyl)piperazin-1-yl)-1,2,4-thiadiazole]: the 50% effective concentration (EC50) stood at 1.1 nM.

In turn, `Clc1cc(-c2nsc(N3CCN(CCc4ccccc4)CC3)n2)ccn1` [Example 170, 3-(2-chloropyridin-4-yl)-5-(4-phenethylpiperazin-1-yl)-1,2,4-thiadiazole] displayed an EC50 of 0.7 nM.

`Fc1cccc(CCN2CCN(c3nc(-c4ccc(Cl)cc4)ns3)CC2)c1` [Example 21, 1-[3-(4-Chloro-phenyl)-[1,2,4]thiadiazol-5-yl]-4-[2-(3-fluoro-phenyl)-ethyl]-piperazine]: the EC50 was 9.5 nM.

In the case of `Clc1cncc(-c2nsc(N3CCN(CCc4ccccc4)CC3)n2)c1` [Example 130, 1-[3-(5-Chloro-pyridin-3-yl)-[1,2,4]thiadiazol-5-yl]-4-phenethyl-piperazine], the EC50 is 0.9 nM.

Molecule `COc1ccc(CCN2CCN(c3nc(-c4cnnc(C)c4)ns3)CC2)cc1` [Example 177, 5-(4-(4-methoxyphenethyl)piperazin-1-yl)-3-(6-methylpyridazin-4-yl)-1,2,4-thiadiazole] yielded an EC50 of 1 nM.

With `COc1ccc(CCN2CCN(c3nc(-c4cncc(Cl)c4)ns3)CC2)cc1` [Example 91, 1-[3-(5-Chloro-pyridin-3-yl)-[1,2,4]thiadiazol-5-yl]-4-[2-(4-methoxy-phenyl)-ethyl]-piperazine], the concentration for a half-maximal effect (EC50) was found to be 0.9 nM.

As for `COc1ccc(CCN2CCN(c3nc(-c4ccc(Cl)cc4)ns3)CC2)cc1` [Example 17, 1-[3-(4-Chloro-phenyl)-[1,2,4]thiadiazol-5-yl]-4-[2-(4-methoxy-phenyl)-ethyl]-piperazine], a half-maximal effect (EC50) was put at 0.8 nM.

Take `COc1cc(CCN2CCN(c3nc(-c4ccnc(C)c4)ns3)CC2)ccn1` [Example 172, 5-(4-(2-(2-methoxypyridin-4-yl)ethyl)piperazin-1-yl)-3-(2-methylpyridin-4-yl)-1,2,4-thiadiazole]: the response was half-maximal at 14.4 nM (EC50).

In the case of `COc1ccc(CCN2CCN(c3nc(-c4ccc(C)nc4)ns3)CC2)cc1` [Example 95, 1-[2-(4-Methoxy-phenyl)-ethyl]-4-[3-(6-methyl-pyridin-3-yl)-[1,2,4]thiadiazol-5-yl]-piperazine], it took 3.1 nM to reach a half-maximal effect (EC50).

Molecule `N#Cc1cccc(-c2nsc(N3CCN(CCc4ccc(F)cc4)CC3)n2)c1` [Example 111, 3-(5-{4-[2-(4-Fluoro-phenyl)-ethyl]piperazin-1-yl}-[1,2,4]thiadiazol-3-yl)-benzonitrile] yielded an EC50 of 3.1 nM.
